Source: patent EP0036502B1, “2-Alkyl-5-hydroxy-1,4-naphthoquinones, process for their manufacture and pharmaceutical preparations containing these compounds” (ZYMA GMBH, priority 1980, dated 1981)

System: Prostaglandinsynthetase
Assay: Prostaglandin synthetase inhibition in vitro (method of Baumann et al.)
Assay type: biochemical
Settings: concentration 10-^3 Mol/I, 1000 µM
Description: Die Erfindung betrifft somit weiterhin die Verwendung der erfindungsgemäßen Verbindungen der allgemeinen Formel I zur Behandlung und Bekämpfung von Entzündungen sowie von allergischen, insbesondere anaphylaktischen Reaktionen. So beträgt beispieslweise die durch 2-Äthyl-5-hydroxy-1,4-naphthochinon hervorgerufene Prostaglandinsynthetase-Hemmung in vitro bei einer Konzentration von 10-^3 Mol/I 87%. Die Bestimmung der Prostaglandinsynthetase-Hemmung wurde nach J. Baumann, F. v. Bruchhausen u. G. Wurm, Naunym-Schmiedeberg's Arch. Pharmacol. 307, 73 (1979) und j. Baumann, G. Wurm u. F. v. Bruchhausen, Arch. Pharm. (Weinheim) 313,330 (1980) durchgeführt.

Prostaglandinsynthetase-Hemmung in vitro: 87%
Compound: CCC1=CC(=O)c2c(O)cccc2C1=O [2-Äthyl-5-hydroxy-1,4-naphthochinon]
